# Reference: ChEMBL document CHEMBL5357002, “Heterodimers of Aromadendrane Sesquiterpenoid with Benzoquinone from the Chinese Liverwort Mylia nuda” (J Nat Prod, 2024)
# Activity calls are given as the source filed them. The rule behind the calls is not given here.
# How the values were obtained:
# SH-SY5Y [1] = assay: Induction of apoptosis in glutamic acid induced human SH-SY5Y cells assessed as early apoptotic cells incubated for 24 hrs by Annexin V-FITC/PI staining based flow cytometry analysis (reference value: 34.60%); format: functional
# SH-SY5Y [2] = assay: Cytoprotective activity against glutamic acid induced injury in human SH-SY5Y cells assessed as decrease in ROS level at 10 uM by DCFH-DA staining based flow cytometry; format: functional, cell-based
# SH-SY5Y [3] = assay: Induction of apoptosis in glutamic acid induced human SH-SY5Y cells assessed as late apoptotic cells incubated for 24 hrs by Annexin V-FITC/PI staining based flow cytometry analysis (reference value: 0.21%); format: functional
# SH-SY5Y [4] = assay: Induction of apoptosis in glutamic acid induced human SH-SY5Y cells assessed as viable cells incubated for 24 hrs by Annexin V-FITC/PI staining based flow cytometry analysis (reference value: 61.55%); format: functional
# SH-SY5Y [5] = assay: Induction of apoptosis in human SH-SY5Y cells assessed as necrotic cells incubated for 24 hrs by Annexin V-FITC/PI staining based flow cytometry analysis (reference value: 0.06%); format: toxicity, cell-based
# SH-SY5Y [6] = assay: Induction of apoptosis in human SH-SY5Y cells assessed as late apoptotic cells incubated for 24 hrs by Annexin V-FITC/PI staining based flow cytometry analysis (reference value: 0.04%); format: toxicity, cell-based
# [7] = Induction of apoptosis in human SH-SY5Y cells assessed as viable cells incubated for 24 hrs by Annexin V-FITC/PI staining based flow cytometry analysis (reference value: 99.87%); format: toxicity, cell-based; details: read-out: Activity
# SH-SY5Y [8] = assay: Induction of apoptosis in glutamic acid induced human SH-SY5Y cells assessed as necrotic cells incubated for 24 hrs by Annexin V-FITC/PI staining based flow cytometry analysis (reference value: 3.64%); format: functional
# SH-SY5Y [9] = assay: Cytoprotective activity against glutamic acid induced injury in human SH-SY5Y cells assessed as increase in cell viability at 10 to 20 uM by MTT assay; format: functional, cell-based; details: dose 10-20 µM
# SH-SY5Y [10] = assay: Induction of apoptosis in human SH-SY5Y cells assessed as early apoptotic cells incubated for 24 hrs by Annexin V-FITC/PI staining based based flow cytometry analysis (reference value: 0.03%); format: toxicity, cell-based
# SH-SY5Y [11] = assay: Cytoprotective activity against glutamic acid induced injury in human SH-SY5Y cells assessed as improvement in cell morphology at 10 uM by immunofluorescence analysis; format: functional, cell-based
smiles,measurement,setting,value
COc1ccc(OC2=C(C)C(=O)[C@@H]3[C@H](C2=O)[C@H]2C[C@@H]3C(C)=C2[C@@H]2[C@H](CCC(C)=O)C2(C)C)cc1C,Activity,SH-SY5Y [1],14.23%
same,Activity,SH-SY5Y [2],Active
same,Activity,SH-SY5Y [3],0.17%
same,Activity,SH-SY5Y [4],81.11%
same,Activity,SH-SY5Y [5],3.59%
same,Activity,SH-SY5Y [6],0.08%
same,viability at 24 h,[7],96%
same,Activity,SH-SY5Y [8],4.49%
same,Activity,SH-SY5Y [9],Active
same,Activity,SH-SY5Y [10],0.39%
same,Activity,SH-SY5Y [11],Active
COc1ccc(OC2=C(C)C(=O)[C@H]3[C@@H](C2=O)[C@@H]2C[C@H]3C([C@@H]3[C@H](CCC(C)=O)C3(C)C)=C2C)cc1C,Activity,SH-SY5Y [9],Active
COc1ccc(OC2=C[C@@H]3C(=O)[C@](C)(C2=O)[C@@]2(C)C([C@@H]4[C@H](CCC(C)=O)C4(C)C)=CC[C@@H]32)cc1C,Activity,SH-SY5Y [9],Active
COc1ccc(OC2=C(C)C(=O)[C@H]3[C@@H](C2=O)[C@@H]2C[C@H]3C(C)=C2[C@@H]2[C@H](CCC(C)=O)C2(C)C)cc1C,Activity,SH-SY5Y [9],Active
COc1ccc(OC2=C(C)C(=O)[C@H]3[C@@H](C2=O)[C@@H]2C[C@@]3(C)C([C@@H]3[C@H](CCC(C)=O)C3(C)C)=C2C)cc1C,Activity,SH-SY5Y [9],Active
COc1ccc(OC2=C(C)C(=O)[C@@H]3[C@H](C2=O)[C@H]2C[C@@H]3C([C@@H]3[C@H](CCC(C)=O)C3(C)C)=C2C)cc1C,Activity,SH-SY5Y [9],Active
